This is an account of results in patent US20250134867A1, “METHOD FOR MODULATING LIPID METABOLISM, AMELIORATING NON-ALCOHOLIC FATTY LIVER DISEASE AND METABOLIC SYNDROME BY USING 6-METHOXYBENZOXAZOLINONE” (Taichung District Agricultural Research and Extension …, priority 2023, published 2025).

Type in all cases: cell-based, human
The subject of data set [1] is OA-induced HuS-E/2 cells. Kind of data set: Oil Red O staining of lipid accumulation in oleic acid (OA)-induced cells. The following applies: 0.1 mM OA, 18 h. The method, then: To evaluate the effect of CX on lipid accumulation, HuS-E/2 cells were incubated with or without 0.1 mM OA (Cat. O1383) in the presence or absence of CX for 18 hours. The OA stock solution was 3.15 M in DMSO, and stored at −20° C.
The procedure regarding oil red O staining is as follows. Oil Red O stain (Cat. O0625) were from Sigma-Aldrich, USA. The Oil Red O stain stock solution was 3 mg/mL in isopropanol, and stored at room temperature. For microscopic observation, cells were fixed in 4% paraformaldehyde in phosphate-buffered saline (PBS) for 30 min at room temperature, stained with Oil Red O stain working solution (60% Oil Red O stock solution and 40% distilled water) for 1 h at room temperature, and then rinsed with water. Micrographs were captured under a microscope. For quantitative analysis of cellular lipids, cells were washed three times with ice-cold PBS, fixed with 10% formalin for 1 h, washed, stained with Oil Red O solution for 1 h at room temperature, and washed with water to remove excess dye. Cell-bound Oil Red O stain was dissolved in isopropanol at room temperature for 5 min with shaking. The absorbance at 510 nm was measured in a spectrophotometer. The relative lipid content is calculated by setting the readouts of those receiving vehicles to 0% and those receiving free fatty acids alone to 100%.

The test system of data set [2] is HuS-E/2 cells. Kind of data set: MTT cell viability / cytotoxicity assay. The following applies: 24 h. The method, then: To determine the cytotoxicity of CX, HuS-E/2 cells were incubated with CX at the concentrations indicated for 24 hours. The CX stock solution was 200 mM in dimethyl sulfoxide (DMSO; Cat. 15578544, J. T. Baker, USA), and stored at −20° C.
The procedure regarding cell culture of immortalized primary human hepatocytes HuS-E/2 cells is as follows. HuS-E/2 cell line, kindly provided by Dr. Shimotohno (Kyoto University, Japan), were maintained in primary hepatocyte medium (PH medium), containing 20 mM HEPES, 10% fetal bovine serum, 15 μg/mL L-proline, 0.25 μg/mL insulin, 50 nM dexamethasone, 44 mM NaHCO3, 10 mM nicotinamide, 5 ng/ml EGF, 0.1 mM Asc-2P, 100 IU/mL penicillin, 100 μg/mL streptomycin, 10 μg/mL gentamicin, and 1 μg/mL plasmocin in high-glucose Dulbeco's modified Eagle medium (DMEM). Cells were incubated at 37° C. in an incubator supplied with 5% CO2.
3-(4,5-dimethylthiazol-2-yl)-2,5-diphenyltetrazolium bromide (MTT) (Cat. M5655) (Sigma-Aldrich, USA) stock solution was 5 mg/mL in 1×phosphate-buffered saline (PBS), and stored at −20° C.
The procedure regarding cell viability is as follows. HuS-E/2 cells were seeded at 4.5×10^4 cells/well in a 96-well plate and were incubated with 0-1600 μM CX for 24 h. MTT was added to each well to a final concentration of […] and was incubated at 37° C. for an hour before removal. MTT-formazan crystals formed by metabolically viable cells were dissolved in 200 μL of DMSO for absorbance detection at 550 nm using a SPARK® Multimode microplate reader from TECAN, Switzerland. The 50% cytotoxic concentration (CC50) was calculated using the normalized response (variable slope) model given in GraphPad Prism 7.03 (USA).

The subject of data set [3] is acetyl-CoA carboxylase (ACC1). Kind of data set: Western blot analysis, ACC1 phosphorylation in OA-induced HuS-E/2 cells. The following applies: CX at 50-400 μM, 0.1 mM OA-induced HuS-E/2 cells. From the text: (§1) The procedure regarding Western blot analysis is as follows. For western blot analysis, an equal amount of protein from each sample was resolved by sodium dodecyl sulfate polyacrylamide gel electrophoresis (SDS-PAGE) and then transferred to polyvinylidene fluoride (PVDF) membranes. Primary antibodies against AMPK (Cat. GTX103487), adipose triglyceride lipase (ATGL) (Cat. GTX109941), carnitine palmitoyl-transferase 1 (CPT1) (Cat. GTX114337), and β-actin (Cat. GTX109639) were from GeneTex (Taiwan), and those against pAMPK (Cat. AP0432), phospho acetyl-CoA carboxylase (pACC) (Cat. AP0298), ACC (Cat. A15606), and fatty acid synthase (FAS) (Cat. A21182) was from ABclonal (China). Horseradish peroxidase (HRP)-conjugated secondary antibodies were from Jackson ImmunoResearch Laboratories, Inc., USA. WesternBright® ECL kits (Advansta Inc., USA) were used for protein visualization. Levels of protein expression were quantified by densitometric analyses.

Data set [4] concerns fatty acid synthase (FAS). Kind of data set: Western blot analysis, FAS expression in OA-induced HuS-E/2 cells. As to conditions: CX at 100-400 μM, 0.1 mM OA-induced HuS-E/2 cells.
Source text: as §1

Data set [5] has as its system carnitine palmitoyl-transferase 1 (CPT1). Kind of data set: Western blot analysis, CPT1 expression in OA-induced HuS-E/2 cells. The following applies: CX at 50-400 μM, 0.1 mM OA-induced HuS-E/2 cells.
Source text: as §1
A general note: In western blotting, separated proteins are transferred to a membrane and probed.

In data set [6] the test system is adipose triglyceride lipase (ATGL). The data set can be described thus: Western blot analysis, ATGL expression in OA-induced HuS-E/2 cells. As to conditions: CX at 50-400 μM, 0.1 mM OA-induced HuS-E/2 cells.
Source text: as §1

Take `COc1ccc2[nH]c(=O)oc2c1` [CX, 6-methoxybenzoxazolinone]: the “lipid accumulation (micrographs, Oil Red O)” value in data set [1] (FIG. 2A) is given as “reduced lipid accumulation in a dose-dependent manner”. For the same molecule, the “lipid content (Oil Red O, absorbance 510 nm)” value in data set [1] (FIG. 2B) is “diminished the lipid content”. In addition, the “effect on the viability of HuS-E/2 cells” value in data set [2] (CX at 25-400 μM, MTT) is “no significant effect”. Besides, the “cytotoxicity in HuS-E/2 cells” value in data set [2] (CX at up to 400 μM) is recorded as “did not inflict cytotoxicity”. Besides, the CC50 in data set [2] (HuS-E/2 cells, MTT, n=3, mean±SEM, read-out: CC50 (50% cytotoxic concentration)) was 1430 ± 170 µM. For the same molecule, the ACC1 phosphorylation result in data set [3] was “increasing ACC1 phosphorylation”. In data set [4], the FAS expression entry is “downregulated FAS expression”. Further, the CPT1 levels result in data set [5] is “elevated CPT1 levels”. In addition, the ATGL expression entry in data set [6] was “increased ATGL expression substantially”.
